Values of other authors, collected in patent US20160346267A1, “Pharmaceutical Composition Comprising Apixaban” (SANDOZ AG, priority 2014, published 2016).

solubility: poorly soluble
Structure (SMILES): COc1ccc(-n2nc(C(N)=O)c3c2C(=O)N(c2ccc(N4CCCCC4=O)cc2)CC3)cc1 [Apixaban, 1-(4-methoxyphenyl)-7-oxo-6-(4-(2-oxopiperidin-1-yl)phenyl)-4,5,6,7-tetrahydro-1H-pyrazolo[3,4-c]pyridine-3-carboxamide]
